{"source": "patent EP0739978A2", "about": "“Hydantoinase from agrobacterium tumefaciens and its use for the preparation of optically pure N-carbamyl-D-amino acids from racemic hydantoins” (W.R. Grace & Co.-Conn., priority 1995, dated 1996)", "key": {"[1]": {"system": "A. tumefaciens ATCC 55632 hydantoinase", "assay": "Substrate specificity", "assay_type": "biochemical", "conditions": "for Relative Activity (%): substrate 5 mg/ml in 50 mM Tris-HCl pH 9.0, 40°C, 10 minutes, DL-5-Methylhydantoin = 100; for % Relative Activity with: ATCC 55632: Table 6 values rescaled to 5,6-Dihydrouracil = 100", "method": "A. Temperature/activity relationship. Hydantoinase activity was measured using a modification of the colorimetric procedure for detecting N-carbamyl amino acids with p-dimethylaminobenzaldehyde (PDMB) as described by Cecere, et al. (FEBS Letters, 57:192 (1975)). Reaction mixtures (total vol. of 0.4 ml in microfuge tubes) contained 75 µmol of DL-5-methylhydantoin (unless designated otherwise) in 50 mM Tris-HCl buffer (pH 9.0) and a suitable amount of hydantoinase extract. Hydantoinase extracts were added to reaction mixtures which had been pre-equilibrated at 40°C, and after 10 minutes incubation at this temperature, reactions were terminated by the addition of 100 µl of 10% (weight/volume) trichloroacetic acid, followed by 100 µl of 10% (weight/volume) PDMB in 6 N HCl. The solutions were mixed, diluted with 0.6 ml of water and centrifuged at 10,000 rpm for 5 minutes. The absorbencies of the supernatant fractions were determined at 440 nm with a Shimadzu Model 160 spectrophotometer. One unit of activity is defined as the amount of enzyme required to form 1 µmol of N-carbamyl amino acid under these conditions. Protein was determined by the BCA assay as per the manufacturer's instructions. (Pierce Chemical Co., Rockford, IL). Specific activity is expressed as units per mg protein. For the determination of the effect of temperature on hydantoinase activity, hydantoinase extracts of A. tumefaciens were added to reaction mixtures pre-equilibrated at various temperatures and activities were determined by the aforementioned assay. Controls (minus enzyme) were run for each temperature and the values obtained were subtracted from the test sample.\nReferring to Table 5, the hydantoinase of the present invention differs from previously described hydantoinases in its combination of high temperature and pH optima, pH stability and lack of requirement or stimulation by metal ions. […] E. Substrate specificity. The substrate specificity of the A. tumefaciens ATCC 55632 hydantoinase was determined by adding hydantoinase extract to 0.4 ml of substrate solution (5 mg/ml 50 mM Tris-HCl buffer, pH 9.0) and incubating the reaction mixtures at 40°C in a water bath for 10 minutes in sealed tubes. The reactions were terminated and further processed as described previously. Controls (minus enzyme) were run for each substrate the values obtained were subtracted from the test sample."}, "hydantoinase [2]": {"system": "hydantoinase", "conditions": "Agrobacterium IP I671 hydantoinase; cited from earlier work"}, "hydantoinase [3]": {"target": "hydantoinase (Pseudomonas putida, UniProt Q59699)", "sequence (Q59699 whole entry)": "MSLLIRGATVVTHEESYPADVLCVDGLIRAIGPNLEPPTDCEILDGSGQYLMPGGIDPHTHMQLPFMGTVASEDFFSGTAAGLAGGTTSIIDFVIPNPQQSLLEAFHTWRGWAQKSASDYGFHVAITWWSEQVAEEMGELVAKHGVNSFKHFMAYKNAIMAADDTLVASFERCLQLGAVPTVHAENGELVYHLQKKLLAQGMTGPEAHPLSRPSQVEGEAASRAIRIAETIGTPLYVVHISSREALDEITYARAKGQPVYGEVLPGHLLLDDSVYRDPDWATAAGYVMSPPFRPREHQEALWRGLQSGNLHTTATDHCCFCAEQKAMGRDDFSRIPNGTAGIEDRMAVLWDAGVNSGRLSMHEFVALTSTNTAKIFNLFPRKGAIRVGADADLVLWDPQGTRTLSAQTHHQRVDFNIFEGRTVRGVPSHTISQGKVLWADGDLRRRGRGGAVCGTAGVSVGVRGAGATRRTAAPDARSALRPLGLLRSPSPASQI", "conditions": "Pseudomonas fluorescens DSM 84 hydantoinase; cited from earlier work"}, "hydantoinase [4]": {"system": "hydantoinase", "conditions": "Agrobacterium radiobacter hydantoinase; cited from earlier work"}, "hydantoinase [5]": {"system": "hydantoinase", "conditions": "Pseudomonas sp. AJ 11220 hydantoinase; cited from earlier work"}, "hydantoinase [6]": {"system": "hydantoinase", "conditions": "Arthrobacter crystallopoietes AM2 hydantoinase; cited from earlier work"}, "hydantoinase [7]": {"system": "hydantoinase", "conditions": "P. striata hydantoinase; cited from earlier work"}, "[8]": {"system": "A. tumefaciens ATCC 55632", "assay": "Induction of hydantoinase activity, basal salts medium with yeast extract and glucose", "assay_type": "cell-based", "conditions": "addition 2 mg/ml, cells harvested after 8 hours; no addition 0.06", "method": "In particular it should be noted that the substrate specificity of hydantoinase from A. tumefaciens ATCC 55632 differs substantially from those described for other Agrobacterium species (5 and 6) due to its high relative activity with dihydrouracil and 5-methylhydantoin and its relatively low rate of hydrolysis with 5-benzylhydantoin F. Induction of hydantoinase activity. A. tumefaciens ATCC 55632 was grown in a medium containing basal salts medium, 1% yeast extract and 20 mM glucose. Various hydantoins or carbamyl amino acids were added to a concentration of 2 mg/ml to induce hydantoinase activity. Cells were harvested after 8 hours, hydantoinase extracts were prepared and hydantoinase activity was determined. […]"}, "[9]": {"system": "A. tumefaciens ATCC 55632", "assay": "Induction of hydantoinase activity, complex medium (separate experiment)", "assay_type": "cell-based", "conditions": "for Specific Activity (Units/mg): inducer 1 gm/liter, complex medium, 24 hours at 30°C, no inducer 0.13", "method": "2,4-Thiouracil (2,4-dithiouracil) has been reported to induce hydantoinase activity in Agrobacterium IP I-671 by 40-fold [Meyer, et al., FEMS 109:71(1993)]. In a separate experiment, hydantoinase activities were determined following the growth of A. tumefaciens ATCC 55632 on a complex medium (750 ml) (see media preparation described in Example 1) containing the inducing compounds at 1 gm/liter. The culture media were inoculated with 24 hour seed culture of A. tumefaciens ATCC 55632 and incubated for 24 hours with shaking at 30°C. Hydantoinase extracts were prepared and the effect of 2,4-thiouracil on hydantoinase induction of A. tumefaciens is shown in Table 9."}, "Agrobacterium IP I-671": {"system": "Agrobacterium IP I-671", "conditions": "cited from earlier work"}, "[10]": {"system": "Hydantoinase extract of A. tumefaciens ATCC 55632", "assay": "Hydantoinase activation by metals", "assay_type": "biochemical", "conditions": "2 mM metal ion, dialyzed extract pre-incubated 30 minutes, assay at 40°C pH 9.0; control without addition 26.4", "protocol": "Reaction mixtures (total vol. of 0.4 ml in microfuge tubes) contained 75 µmol of DL-5-methylhydantoin (unless designated otherwise) in 50 mM Tris-HCl buffer (pH 9.0) and a suitable amount of hydantoinase extract. Hydantoinase extracts were added to reaction mixtures which had been pre-equilibrated at 40°C, and after 10 minutes incubation at this temperature, reactions were terminated by the addition of 100 µl of 10% (weight/volume) trichloroacetic acid, followed by 100 µl of 10% (weight/volume) PDMB in 6 N HCl. The solutions were mixed, diluted with 0.6 ml of water and centrifuged at 10,000 rpm for 5 minutes. The absorbencies of the supernatant fractions were determined at 440 nm with a Shimadzu Model 160 spectrophotometer. One unit of activity is defined as the amount of enzyme required to form 1 µmol of N-carbamyl amino acid under these conditions. Protein was determined by the BCA assay as per the manufacturer's instructions. […] Specific activity is expressed as units per mg protein.\nD. Hydantoinase activation by metals. […] Solutions (360 µl) containing either 2 mM Mg^++, Co^++ or Ni^++ in 50 mM Tris buffer, pH 9.0 were pre-incubated with dialyzed hydantoinase extract for 30 minutes at ambient temperature. The reaction mixtures were equilibrated in a 40°C water bath for 2 minutes. The hydantoinase assay was started immediately with the addition of 40 µl DL-5-methylhydantoin (100 mg/ml in 50 mM Tris-HCl buffer, pH 9.0)."}}}
{"compound": "CCC(C)C1NC(=O)NC1=O", "note": "(racemic) [DL-5-(sec)-Butylhydantoin]", "values": [{"measurement": "Relative Activity (%)", "setting": "[1]", "result": 76, "unit": "%"}]}
{"compound": "O=C1NC(=O)C(Cc2ccccc2)N1", "note": "(racemic) [DL-5-Benzylhydantoin]", "values": [{"measurement": "% Relative Activity with: 6", "setting": "hydantoinase [2]", "result": 100, "unit": "%"}, {"measurement": "% Relative Activity with: 2", "setting": "hydantoinase [3]", "result": 2, "unit": "%"}, {"measurement": "% Relative Activity with: 5", "setting": "hydantoinase [4]", "result": 32, "unit": "%"}, {"measurement": "% Relative Activity with: ATCC 55632", "setting": "[1]", "result": 15, "unit": "%"}, {"measurement": "Relative Activity (%)", "setting": "[1]", "result": 19, "unit": "%"}, {"measurement": "% Relative Activity with: 4", "setting": "hydantoinase [5]", "result": 57, "unit": "%"}]}
{"compound": "O=C1NC(=O)C(CO)N1", "note": "(racemic) [DL-5-Hydroxymethylhydantoin]", "values": [{"measurement": "Relative Activity (%)", "setting": "[1]", "result": 22, "unit": "%"}]}
{"compound": "CC(C)CC1NC(=O)NC1=O", "note": "(racemic) [DL-5-Isobutylhydantoin]", "values": [{"measurement": "Relative Activity (%)", "setting": "[1]", "result": 77, "unit": "%"}]}
{"compound": "CC(C)C1NC(=O)NC1=O", "note": "(racemic) [DL-5-Isopropylhydantoin]", "values": [{"measurement": "Relative Activity (%)", "setting": "[1]", "result": 73, "unit": "%"}]}
{"compound": "CC1NC(=O)NC1=O", "note": "(racemic) [DL-5-Methylhydantoin]", "values": [{"measurement": "% Relative Activity with: 6", "setting": "hydantoinase [2]", "result": 37, "unit": "%"}, {"measurement": "% Relative Activity with: 1", "setting": "hydantoinase [6]", "result": 100, "unit": "%"}, {"measurement": "% Relative Activity with: 3", "setting": "hydantoinase [7]", "result": 45, "unit": "%"}, {"measurement": "% Relative Activity with: 5", "setting": "hydantoinase [4]", "result": 24, "unit": "%"}, {"measurement": "% Relative Activity with: ATCC 55632", "setting": "[1]", "result": 80, "unit": "%"}, {"measurement": "Relative Activity (%)", "setting": "[1]", "result": 100, "unit": "%"}, {"measurement": "Specific Activity (U/mg)", "setting": "[8]", "result": 1.65, "unit": "U/mg"}]}
{"compound": "O=C1NC(=O)C(c2ccccc2)N1", "note": "(racemic) [DL-5-Phenylhydantoin]", "values": [{"measurement": "% Relative Activity with: 1", "setting": "hydantoinase [6]", "result": 37, "unit": "%"}, {"measurement": "% Relative Activity with: 3", "setting": "hydantoinase [7]", "result": 25, "unit": "%"}, {"measurement": "% Relative Activity with: 5", "setting": "hydantoinase [4]", "result": 51, "unit": "%"}, {"measurement": "% Relative Activity with: ATCC 55632", "setting": "[1]", "result": 68, "unit": "%"}, {"measurement": "Relative Activity (%)", "setting": "[1]", "result": 85, "unit": "%"}, {"measurement": "% Relative Activity with: 4", "setting": "hydantoinase [5]", "result": 34, "unit": "%"}]}
{"compound": "CN1CC(=O)NC1=O", "note": "[1-Methylhydantoin]", "values": [{"measurement": "Specific Activity (U/mg)", "setting": "[8]", "result": 0.09, "unit": "U/mg"}]}
{"compound": "S=c1cc[nH]c(=S)[nH]1", "note": "[2,4-Thiouracil]", "values": [{"measurement": "induction of hydantoinase activity (in words)", "setting": "[9]; A. tumefaciens ATCC 55632", "result": "does not appear to induce hydantoinase activity"}, {"measurement": "Specific Activity (Units/mg)", "setting": "[9]", "result": 0.15, "unit": "Units/mg"}, {"measurement": "induction of hydantoinase activity", "setting": "Agrobacterium IP I-671; Meyer, et al., FEMS 109:71(1993)", "result": 40, "unit": "fold"}]}
{"compound": "CSCCC1NC(=O)NC1=O", "note": "(centres unmarked) [5(2-methylthioethyl) hydantoin]", "values": [{"measurement": "% Relative Activity with: 6", "setting": "hydantoinase [2]", "result": 55, "unit": "%"}, {"measurement": "% Relative Activity with: 2", "setting": "hydantoinase [3]", "result": 41, "unit": "%"}, {"measurement": "% Relative Activity with: 3", "setting": "hydantoinase [7]", "result": 48, "unit": "%"}, {"measurement": "% Relative Activity with: 5", "setting": "hydantoinase [4]", "result": 100, "unit": "%"}, {"measurement": "% Relative Activity with: ATCC 55632", "setting": "[1]", "result": 65, "unit": "%"}, {"measurement": "Relative Activity (%)", "setting": "[1]", "result": 81, "unit": "%"}, {"measurement": "% Relative Activity with: 4", "setting": "hydantoinase [5]", "result": 100, "unit": "%"}]}
{"compound": "O=C1CCNC(=O)N1", "note": "[5,6-Dihydrouracil]", "values": [{"measurement": "% Relative Activity with: 6", "setting": "hydantoinase [2]", "result": 10, "unit": "%"}, {"measurement": "% Relative Activity with: 2", "setting": "hydantoinase [3]", "result": 100, "unit": "%"}, {"measurement": "% Relative Activity with: 1", "setting": "hydantoinase [6]", "result": 78, "unit": "%"}, {"measurement": "% Relative Activity with: 3", "setting": "hydantoinase [7]", "result": 100, "unit": "%"}, {"measurement": "% Relative Activity with: ATCC 55632", "setting": "[1]", "result": 100, "unit": "%"}, {"measurement": "Relative Activity (%)", "setting": "[1]", "result": 125, "unit": "%"}, {"measurement": "% Relative Activity with: 4", "setting": "hydantoinase [5]", "result": 9, "unit": "%"}, {"measurement": "Specific Activity (U/mg)", "setting": "[8]", "result": 0.22, "unit": "U/mg"}]}
{"compound": "[Co+2]", "note": "[Cobalt]", "values": [{"measurement": "Hydantoinase Activity (Units/ml)", "setting": "[10]", "result": 27.9, "unit": "Units/ml"}]}
{"compound": "NC(=O)NCC(=O)O", "note": "[Hydantoic acid]", "values": [{"measurement": "Specific Activity (U/mg)", "setting": "[8]", "result": 1.34, "unit": "U/mg"}]}
{"compound": "O=C1CNC(=O)N1", "note": "[Hydantoin]", "values": [{"measurement": "increase of hydantoinase activity", "setting": "[9]; A. tumefaciens ATCC 55632, versus no inducer", "result": 10, "unit": "fold"}, {"measurement": "Specific Activity (Units/mg)", "setting": "[9]", "result": 1.37, "unit": "Units/mg"}, {"measurement": "induction of hydantoinase activity (in words)", "setting": "Agrobacterium IP I-671; FEMS 109:71, 1993", "result": "does not induce hydantoinase activity"}, {"measurement": "Specific Activity (U/mg)", "setting": "[8]", "result": 1.44, "unit": "U/mg"}]}
{"compound": "[Mg+2]", "note": "[Magnesium]", "values": [{"measurement": "Hydantoinase Activity (Units/ml)", "setting": "[10]", "result": 24.8, "unit": "Units/ml"}]}
{"compound": "C[C@H](NC(N)=O)C(=O)O", "note": "[N-carbamyl alanine]", "values": [{"measurement": "Specific Activity (U/mg)", "setting": "[8]", "result": 0.44, "unit": "U/mg"}]}
{"compound": "NC(=O)N[C@@H](Cc1ccccc1)C(=O)O", "note": "[N-carbamylphenylalanine]", "values": [{"measurement": "Specific Activity (U/mg)", "setting": "[8]", "result": 0.13, "unit": "U/mg"}]}
{"compound": "[Ni+2]", "note": "[Nickel]", "values": [{"measurement": "Hydantoinase Activity (Units/ml)", "setting": "[10]", "result": 25.0, "unit": "Units/ml"}]}
{"compound": "Tryptophan hydantoin", "values": [{"measurement": "Specific Activity (U/mg)", "setting": "[8]", "result": 0.10, "unit": "U/mg"}]}
